From patent US20230053540A1, “TREATMENT OF LIVER INJURY” (Massachusetts Institute of Technology, priority 2019, published 2023)

Test system: hepatocytes
Experiment: Seq-Well scRNA-Seq of hepatocytes after APAP overdose (signature scores, DEG vs untreated)
Type: in vivo, mouse

## CC(=O)Nc1ccc(O)cc1 [APAP, acetaminophen]
APAP vs UT, A24logFC
  Rpl34 logFC: −0.2976
  Rps24 logFC: −0.2625
  Rraga logFC: 0.2626
  Rsl1d1 logFC: 0.3461
  Selo logFC: −0.2574
  Sema4g logFC: −0.2505
  Serbp1 logFC: 0.3227
  Sf3b1 logFC: 0.2888
  Sigmar1 logFC: −0.3055
  Slc16a2 logFC: −0.252
  Slc16a10 logFC: −0.2548
  Slc25a51 logFC: 0.264
  Slc26a1 logFC: −0.2817
  Slc30a1 logFC: 0.2506
  Slc35d1 logFC: 0.3094
  Smoc1 logFC: 0.2616
  Spag9 logFC: 0.3188
  Spcs1 logFC: −0.2629
  Sptan1 logFC: 0.3127
  Srd5a1 logFC: −0.2773
  Srrm2 logFC: 0.3282
  St3gal4 logFC: 0.275
  Swi5 logFC: −0.2621
  Tab2 logFC: 0.3484
  Tbca logFC: −0.2726
  Tln1 logFC: 0.321
  Tmem86b logFC: −0.2582
  Tmem150a logFC: −0.2535
  Tmem242 logFC: −0.2725
  Tpi1 logFC: −0.2616
  Trip11 logFC: 0.3479
  Ubr5 logFC: 0.3057
  Ugt3a2 logFC: −0.2586
  Usp7 logFC: 0.2873
  Usp34 logFC: 0.2859
  Xrn2 logFC: 0.2985
  Ythdc1 logFC: 0.2641
  Zfand5 logFC: 0.2882
  Zfp106 logFC: 0.3369
  Zfp259 logFC: 0.2556
APAP vs. UT
  2810007J24Rik avg_logFC: −0.2871
  2810007J24Rik pct.1: 0.909
  Aadac avg_logFC: −0.3243
  Aadac pct.1: 0.849
  Abca6 avg_logFC: 0.2637
  Abca6 pct.1: 0.679
  Abcb4 avg_logFC: 0.2759
  Abcb4 pct.1: 0.78
  Acaa1b avg_logFC: −0.3158
  Acaa1b pct.1: 0.883
  Adh1 avg_logFC: −0.3122
  Adh1 pct.1: 0.941
  Agpat6 avg_logFC: 0.2706
  Agpat6 pct.1: 0.695
  Agt avg_logFC: 0.3007
  Agt pct.1: 0.859
  Akr1c6 avg_logFC: −0.5047
  Akr1c6 pct.1: 0.92
  Aldh9a1 avg_logFC: 0.2715
  Aldh9a1 pct.1: 0.836
  Aldob avg_logFC: 0.2576
  Aldob pct.1: 0.997
  Angptl3 avg_logFC: 0.414
  Angptl3 pct.1: 0.961
  Apoa4 avg_logFC: 0.5984
  Apoa4 pct.1: 0.574
  Apob avg_logFC: 0.2678
  Apob pct.1: 0.989
  Apoc2 avg_logFC: 0.5107
  Apoc2 pct.1: 0.851
  Arhgap5 avg_logFC: 0.2875
  Arhgap5 pct.1: 0.647
  Arhgef12 avg_logFC: 0.2783
  Arhgef12 pct.1: 0.597
  Asl avg_logFC: 0.3374
  Asl pct.1: 0.859
  Atp1a1 avg_logFC: 0.2871
  Atp1a1 pct.1: 0.623
  Atp2a2 avg_logFC: 0.3031
  Atp2a2 pct.1: 0.666
  Bach1 avg_logFC: 0.2613
  Bach1 pct.1: 0.356
  Bche avg_logFC: 0.2566
  Bche pct.1: 0.562
  Brd2 avg_logFC: 0.2856
  Brd2 pct.1: 0.59
  Btg2 avg_logFC: 0.2635
  Btg2 pct.1: 0.401
  C8g avg_logFC: −0.2582
  C8g pct.1: 0.859
  Car3 avg_logFC: −0.3762
  Car3 pct.1: 0.956
  Cdo1 avg_logFC: 0.2665
  Cdo1 pct.1: 0.964
  Ces3a avg_logFC: −0.3174
  Ces3a pct.1: 0.93
  Ces3b avg_logFC: −0.284
  Ces3b pct.1: 0.727
  Chchd2 avg_logFC: −0.2575
  Chchd2 pct.1: 0.874
  Chchd10 avg_logFC: 0.3833
  Chchd10 pct.1: 0.925
  Chka avg_logFC: 0.2892
  Chka pct.1: 0.312
  Cite avg_logFC: 0.3077
  Cite pct.1: 0.602
  Cml1 avg_logFC: −0.2953
  Cml1 pct.1: 0.709
  Cox4i1 avg_logFC: −0.2627
  Cox4i1 pct.1: 0.941
  Cox6c avg_logFC: −0.3432
  Cox6c pct.1: 0.808
  Cox7a2 avg_logFC: −0.2511
  Cox7a2 pct.1: 0.722
  Cp avg_logFC: 0.3758
  Cp pct.1: 0.965
  Cpt1a avg_logFC: 0.285
  Cpt1a pct.1: 0.775
  Creld2 avg_logFC: 0.2626
  Creld2 pct.1: 0.487
  Csde1 avg_logFC: 0.2739
  Csde1 pct.1: 0.749
  Cyb5 avg_logFC: −0.2845
  Cyb5 pct.1: 0.972
  Cyp4a10 avg_logFC: 0.7159
  Cyp4a10 pct.1: 0.727
  Cyp4a14 avg_logFC: 1.281
  Cyp4a14 pct.1: 0.714
  D17Wsu92e avg_logFC: 0.2809
  D17Wsu92e pct.1: 0.736
  Ddx3x avg_logFC: 0.2753
  Ddx3x pct.1: 0.689
  Ddx21 avg_logFC: 0.2576
  Dennd5b avg_logFC: 0.2562
  Dennd5b pct.1: 0.55
  Dhcr24 avg_logFC: 0.3629
  Dhcr24 pct.1: 0.883
  Eif1a avg_logFC: 0.2667
  Eif1a pct.1: 0.492
  Eif4g2 avg_logFC: 0.3407
  Eif4g2 pct.1: 0.824
  Ell2 avg_logFC: 0.2572
  Ell2 pct.1: 0.609
  Elovl3 avg_logFC: −0.5221
  Elovl3 pct.1: 0.65
  Epb4.1 avg_logFC: 0.2567
  Epb4.1 pct.1: 0.527
  Etf1 pct.1: 0.61
  Etnppl avg_logFC: 0.2637
  Etnppl pct.1: 0.647
  Fabp1 avg_logFC: −0.3078
  Fabp1 pct.1: 0.992
  Fam134b avg_logFC: 0.2987
  Fam134b pct.1: 0.589
  Fga avg_logFC: 0.4335
  Fga pct.1: 0.996
  Fgb avg_logFC: 0.3905
  Fgb pct.1: 0.999
  Fgg avg_logFC: 0.3391
  Fgg pct.1: 0.997
  Fgl1 avg_logFC: 0.3611
  Fgl1 pct.1: 0.861
  Fos avg_logFC: 0.2633
  Fos pct.1: 0.609
  Gadd45g avg_logFC: −0.3405
  Gadd45g pct.1: 0.503
  Gclc avg_logFC: 0.671
  Gclc pct.1: 0.839
  Gfra1 avg_logFC: 0.2536
  Gfra1 pct.1: 0.676
  Gjb2 avg_logFC: 0.2803
  Gjb2 pct.1: 0.725
  Gm2a avg_logFC: 0.2814
  Gm2a pct.1: 0.599
  Gm13775 avg_logFC: −1.061
  Gm13775 pct.1: 0.306
  Gm15564 avg_logFC: 1.171
  Gm15564 pct.1: 0.981
  Gm23935 avg_logFC: 0.5701
  Gm23935 pct.1: 0.954
  Gm24601 avg_logFC: 0.4962
  Gm24601 pct.1: 0.198
  Gm26917 avg_logFC: 0.395
  Gm26917 pct.1: 0.253
  Gm26924 avg_logFC: 0.8508
  Gm26924 pct.1: 1
  Grip2 avg_logFC: 0.3797
  Grip2 pct.1: 0.158
  Grn avg_logFC: 0.3692
  Grn pct.1: 0.62
  Gstm3 avg_logFC: −0.4736
  Gstm3 pct.1: 0.269
  Gyk avg_logFC: 0.3144
  Gyk pct.1: 0.583
  Hbb-bs avg_logFC: 1.332
  Hbb-bs pct.1: 0.125
  Hbb-bt avg_logFC: 0.4482
  Hbb-bt pct.1: 0.052
  Hdlbp avg_logFC: 0.274
  Hdlbp pct.1: 0.828
  Herpud1 avg_logFC: 0.2973
  Herpud1 pct.1: 0.842
